In patent US10995068B2, “Synthetic sphingolipid-like molecules, drugs, methods of their synthesis and methods of treatment” (The Regents of the University of California, priority 2015, dated 2021):

Experiments:
[1] = tested on: non-transformed murine OP9 bone marrow stromal cells and primary murine embryonic fibroblasts (MEFs); assay: Sensitivity of non-transformed cells versus cancer cell lines; type: cell-based; conditions: OP9 and primary MEFs versus DLD-1, LS180, SW48, SW480, SW620, MDA-MB-231, PANC-1
Method: Consistent with the bioenergetic mechanism described supra, cells with a higher anabolic rate should be more sensitive to sphingolipid-like compounds. In exemplary experiments testing this mechanism, murine FL5.12 cells with different anabolic rates were treated with SH-BC-893. The anabolic rate of FL5.12 cells can be titrated by modulating the levels of their required growth factor, IL-3; comparing FL5.12 cells grown in high and low IL-3 allows the impact of elevated growth factor signaling and anabolism to be evaluated in a constant genetic background. High concentrations of IL-3 drive aerobic glycolysis and a rapid doubling time (12 h). Reducing IL-3 levels slows proliferation and increases oxidative phosphorylation without compromising cell viability (FIGS. 53A and 53B). […] Many of these cancer cell lines carry activating mutations in Ras. […]
Cell culture and reagents. […] Cell viability was measured by vital dye exclusion using either propidium iodide or DAPI at 1 μg/ml. Analysis of cell surface 4F2hc levels with PE-conjugated anti-CD98 was restricted to viable cells as determined by DAPI exclusion. Anchorage-independent growth of SW620 cells was measured in DMEM-10 containing 0.35% low melt agarose with a 0.5% agarose bottom layer. […]

[2] = tested on: mPCE subcutaneous isografts; assay: mPCE subcutaneous prostate isografts; type: in vivo; conditions: C57BL/6 mice
Method: The ability of starvation-inducing sphingolipid-like drugs to affect the growth of slow growing or autochthonous neoplasms was also evaluated. In C57BL/6 mice bearing mPCE subcutaneous isografts, 60 mg/kg SH-BC-893 was given daily by gavage and slowed tumor growth by 60% similar to results with SW620 xenografts dosed with 20 mg/kg i.p. (FIGS. 53G-I and 65I). At 120 mg/kg, SH-BC-893 inhibited prostate tumor growth by more than 90% (FIG. 65I). […] Akt activity was slightly elevated by SH-BC-893 consistent with loss of TORC1-mediated negative feedback. Thus, sphingolipid-like compounds, such as SH-BC-893, are effective against neoplasms with distinct molecular defects and metabolic characteristics.
In vivo studies. Experiments conducted in mice were performed in accordance with the Institutional Animal Care and Use Committee of University of California, Irvine following a power analysis conducted in consultation with the Biostatistics Shared Resource of Chao Family Comprehensive Cancer Center at UCI. […] Tumor volume was calculated using the formula, volume (mm^3)=length [mm]×(width [mm])^2×0.52; BLI was measured using an IVIS imaging system (Xenogen). […] Blood chemistry was analyzed by IDEXX BioResearch and complete blood counts were performed using a Hemavet hematology system.

Compound: CCCCCCCCc1ccc([C@H]2CCN[C@@H]2CO)cc1.Cl [Compound 5, (2S,3R)-2-(hydroxymethyl)-3-(4-octylphenyl)Pyrrolidinium chloride]
- sensitivity compared with human cancer cell lines [1]: less sensitive
- slowing of tumor growth ([2]; 60 mg/kg daily by gavage): 60%
- inhibition of prostate tumor growth ([2]; 120 mg/kg): more than 90%
